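Grown in 96-well plates, cells were treated for 48 hours with each compound at five concentrations. Insufficient inhibition: endpoint recorded as highest concentration tested. GI50: concentration for 50% inhibition of growth.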 The source made the active and inactive calls. Cut-off read from the data, not from the text of the source: active = GI50 up to about 1.1 µM and inactive = higher.

Test systems include NCI-H226; SK-MEL-28; MDA-MB-231; NCI-H522; TK-10; SF-539; M14; LOX IMVI; U-251; SK-MEL-5; ACHN; HOP-62; SNB-19; NCI-H23; COLO 205; UO-31; DU-145; SF-295; MDA-N.
Assay in all cases: NCI-60 cell line screen, 48 h

For the compound `CCCCCN(CCCCC)CC(C)(C)C(O)c1ccc(OC)c2ccccc12` (configuration not stated), the GI50 in the experiment on NCI-H226 was 16.9 µM (inactive); in the experiment on SK-MEL-28, 10.5 µM (inactive); with MDA-MB-231, 13.8 µM (inactive); with NCI-H522, 6.79 µM (inactive); in the experiment with TK-10 it was 7.98 µM (inactive); in the experiment on SF-539, 3.89 µM (inactive). Also, the GI50 in the experiment on M14 was 1.4 µM (inactive); in the experiment on LOX IMVI, 1.68 µM (inactive); in the experiment on U-251 it was 9.46 µM (inactive); in the experiment with SK-MEL-5, 3.52 µM (inactive); in the experiment on ACHN, 11.7 µM (inactive); in the experiment with HOP-62, 22.9 µM (inactive). The GI50 in the experiment with SNB-19 is 10.7 µM (inactive); with NCI-H23, 11.2 µM (inactive); in the experiment with COLO 205 it was 6.85 µM (inactive); in the experiment on UO-31 it was 2.25 µM (inactive); with DU-145 it was 12.5 µM (inactive); in the experiment on SF-295, 9.77 µM (inactive).
As to `O=C(CC(C(=O)c1ccsc1)c1ccsc1)c1ccsc1` (configuration not stated), the GI50 in the experiment on NCI-H226 is > 100 µM (inactive); in the experiment with SK-MEL-28, 82.8 µM (inactive); with MDA-MB-231, > 100 µM (inactive); with TK-10, > 100 µM (inactive); in the experiment with SF-539, > 100 µM (inactive); in the experiment with M14 it was 50.2 µM (inactive). The GI50 with LOX IMVI is 79.8 µM (inactive); in the experiment on U-251 it was > 100 µM (inactive); with SK-MEL-5, 43.5 µM (inactive); in the experiment on ACHN it was > 100 µM (inactive); in the experiment with HOP-62, > 100 µM (inactive); in the experiment on SNB-19, > 100 µM (inactive). Further, the GI50 in the experiment on NCI-H23 is 46.1 µM (inactive); in the experiment on COLO 205, > 100 µM (inactive); in the experiment with UO-31, 39.4 µM (inactive); in the experiment with DU-145, > 100 µM (inactive); in the experiment on SF-295, 73.6 µM (inactive).
Consider `Cc1cc(Br)cc(C)c1NC(=O)C(=O)C(C(=O)c1ccc2ccccc2c1)C1OC(=O)c2ccccc21` (configuration not stated), for which the GI50 was 4.85 µM (inactive) in the experiment with NCI-H226; 8.97 µM (inactive) with SK-MEL-28; 8.65 µM (inactive) with NCI-H522; 21.1 µM (inactive) with TK-10; 2.69 µM (inactive) in the experiment on SF-539; 15.6 µM (inactive) with M14. For the same compound, the GI50 in the experiment on LOX IMVI is 12.1 µM (inactive); in the experiment on U-251 it was 5.78 µM (inactive); with SK-MEL-5 it was 11.2 µM (inactive); in the experiment on ACHN it was 15.2 µM (inactive); in the experiment on HOP-62, 12.2 µM (inactive); in the experiment with SNB-19, 8 µM (inactive). In addition, the GI50 is 7.53 µM (inactive) with NCI-H23, 16.3 µM (inactive) in the experiment with COLO 205, 15.8 µM (inactive) with UO-31 and 4.59 µM (inactive) in the experiment with SF-295.
For the compound `O=C(c1nc2ccccc2nc1O)C(O)c1ccco1` (configuration not stated), the GI50 is > 100 µM (inactive) in the experiment with NCI-H226; > 100 µM (inactive) in the experiment on SK-MEL-28; 25.9 µM (inactive) in the experiment on NCI-H522; > 100 µM (inactive) in the experiment with TK-10; > 100 µM (inactive) in the experiment on SF-539; > 100 µM (inactive) with M14. The GI50 in the experiment on LOX IMVI was > 100 µM (inactive); in the experiment with U-251, > 100 µM (inactive); with SK-MEL-5 it was 64.1 µM (inactive); in the experiment on ACHN, 54.5 µM (inactive); in the experiment with HOP-62 it was > 100 µM (inactive); with SNB-19, > 100 µM (inactive). Moreover, the GI50 is > 100 µM (inactive) with NCI-H23, > 100 µM (inactive) in the experiment on COLO 205, 72.3 µM (inactive) with UO-31 and > 100 µM (inactive) with SF-295.
In the case of `C1CCCN(NC2=NCCO2)CC1`, the GI50 in the experiment on NCI-H226, in the experiment with MDA-MB-231, in the experiment on NCI-H522, with TK-10, with SF-539 and with M14 was > 100 µM (inactive) in each case. Also, the GI50 with LOX IMVI, in the experiment on U-251, with SK-MEL-5, in the experiment with ACHN, in the experiment with HOP-62 and in the experiment on MDA-N was > 100 µM (inactive) in each case. Moreover, the GI50 with SNB-19, in the experiment on NCI-H23, in the experiment with COLO 205, in the experiment with UO-31 and in the experiment on SF-295 was > 100 µM (inactive) each time.
Consider `COc1cc([C@@H]2c3cc4c(cc3[C@@H](OC(=O)c3ccc(N)cc3)C3COC(=O)[C@@H]32)OCO4)cc(OC)c1O` (some centres not stated), for which the GI50 in the experiment on NCI-H226 is 6.97 µM (inactive); with SK-MEL-28, 9.48 µM (inactive); in the experiment on NCI-H522 it was 2.07 µM (inactive); in the experiment with TK-10, 17.6 µM (inactive); in the experiment with SF-539, 2.54 µM (inactive); with M14, 16.8 µM (inactive). Moreover, the GI50 in the experiment with LOX IMVI was 10.6 µM (inactive); with U-251 it was 4.45 µM (inactive); with SK-MEL-5, 3.59 µM (inactive); in the experiment on ACHN, 7.74 µM (inactive); with HOP-62, 3.5 µM (inactive); with SNB-19, 20.7 µM (inactive). Besides, the GI50 in the experiment with NCI-H23 was 3.32 µM (inactive); in the experiment on COLO 205, 5.98 µM (inactive); in the experiment with UO-31, 10.2 µM (inactive); in the experiment with SF-295 it was 4.25 µM (inactive).
On to `C#CCN(CC#C)C(=O)C(=O)c1c[nH]c2ccc(OC)cc12`, for which the GI50 in the experiment on NCI-H226 was 18.2 µM (inactive); with SK-MEL-28 it was 16.1 µM (inactive); in the experiment on MDA-MB-231, 14.9 µM (inactive); with TK-10 it was 14.5 µM (inactive); in the experiment with SF-539, 14 µM (inactive); in the experiment on M14, 18.5 µM (inactive). For the same compound, the GI50 in the experiment on LOX IMVI is 18.7 µM (inactive); in the experiment with U-251, 14.4 µM (inactive); in the experiment with SK-MEL-5, 15.8 µM (inactive); in the experiment on ACHN, 21.3 µM (inactive); in the experiment with HOP-62 it was 16.7 µM (inactive); in the experiment on SNB-19, 16.1 µM (inactive). Further, the GI50 in the experiment on NCI-H23 was 22.4 µM (inactive); in the experiment with COLO 205 it was 21.6 µM (inactive); with UO-31 it was 8.11 µM (inactive); with DU-145, 39.1 µM (inactive); with SF-295, 17.5 µM (inactive).
With `COc1ccc(CN2C(=O)C(Cc3cc(OC)c(OC)c(C)c3OC)N(C(=O)OC(C)C)C(=O)/C2=C/c2cc(OC)c(OC)c(C)c2OC)cc1` (configuration not stated), the GI50 with NCI-H226 was 14.8 µM (inactive); with SK-MEL-28, > 100 µM (inactive); in the experiment with NCI-H522 it was 4.4 µM (inactive); in the experiment with TK-10, > 100 µM (inactive); in the experiment with SF-539 it was > 100 µM (inactive); with M14 it was > 100 µM (inactive). Besides, the GI50 in the experiment with LOX IMVI was > 100 µM (inactive); with U-251 it was > 100 µM (inactive); in the experiment on SK-MEL-5 it was 46.8 µM (inactive); with ACHN it was > 100 µM (inactive); in the experiment with HOP-62, > 100 µM (inactive); with SNB-19, > 100 µM (inactive). The GI50 in the experiment on NCI-H23 is > 100 µM (inactive); with COLO 205, 45.2 µM (inactive); in the experiment with UO-31 it was 16.6 µM (inactive); in the experiment on SF-295, > 100 µM (inactive).
Take `O=C1CCC2(CCC(=O)NC2=O)C(=O)N1`: the GI50 in the experiment on NCI-H226, in the experiment on SK-MEL-28, in the experiment on NCI-H522, in the experiment on TK-10, in the experiment with SF-539 and with M14 was > 100 µM (inactive) throughout. The GI50 with LOX IMVI, with U-251, with SK-MEL-5, in the experiment on ACHN, with HOP-62 and in the experiment on SNB-19 was > 100 µM (inactive) throughout. Further, the GI50 in the experiment on NCI-H23, with COLO 205, with UO-31 and with SF-295 was > 100 µM (inactive) throughout.
Regarding `CC(C)(CN1C(=O)C(Cl)=C(Cl)C1=O)CN1C(=O)C(Cl)=C(Cl)C1=O`, the GI50 in the experiment on NCI-H226 was 22.5 µM (inactive); with SK-MEL-28, 7.48 µM (inactive); with NCI-H522 it was 1.62 µM (inactive); in the experiment on TK-10, 9.02 µM (inactive); with SF-539 it was 20.1 µM (inactive); in the experiment on M14, 16.6 µM (inactive). Besides, the GI50 was 12.2 µM (inactive) in the experiment on LOX IMVI; 18.1 µM (inactive) in the experiment with U-251; 22.1 µM (inactive) with SK-MEL-5; 9.44 µM (inactive) in the experiment on ACHN; 22.1 µM (inactive) with HOP-62; 23 µM (inactive) in the experiment with SNB-19. Moreover, the GI50 in the experiment with NCI-H23 was 11.7 µM (inactive); in the experiment with COLO 205, 3.23 µM (inactive); with UO-31 it was 31.6 µM (inactive); in the experiment on SF-295, 24.3 µM (inactive).
`C[N+](C)(Cc1ccc(NC(=O)CCCC(=O)ON2C(=O)CCC2=O)cc1)c1ccccc1`: the GI50 in the experiment on NCI-H226, with SK-MEL-28, in the experiment on NCI-H522, in the experiment on TK-10, with SF-539 and with M14 was < 0.01 µM (active) throughout. The GI50 in the experiment on LOX IMVI, in the experiment on U-251, in the experiment on SK-MEL-5, in the experiment on ACHN, in the experiment on HOP-62 and with SNB-19 was < 0.01 µM (active) in each case. In addition, the GI50 in the experiment on NCI-H23, in the experiment with COLO 205, in the experiment on UO-31 and with SF-295 was < 0.01 µM (active) in each case.
`CCOP(=O)(C/C(=N/NC(C)(C)C)C(=O)Nc1nc2ccc(C)cc2s1)OCC`: the GI50 in the experiment with NCI-H226, in the experiment with SK-MEL-28, in the experiment on NCI-H522, with TK-10, with SF-539 and with M14 was > 100 µM (inactive) each time. The GI50 in the experiment with LOX IMVI, in the experiment on U-251, in the experiment on SK-MEL-5, in the experiment on ACHN, in the experiment with HOP-62 and in the experiment with SNB-19 was > 100 µM (inactive) throughout. For the same compound, the GI50 with NCI-H23, in the experiment with COLO 205, in the experiment with UO-31 and in the experiment with SF-295 was > 100 µM (inactive) in each case.
